Here are results for 13 molecules from patent US9567324B2, “Substituted nicotinamide derivatives as kinase inhibitors” (Allergan, Inc., priority 2013, dated 2017).

The target of assay [1] is PDGFRβ (purified cytoplasmic domain PDGFR-b protein) (Homo sapiens (Human), UniProt P09619). Kind of assay: PDGFRβ Kinase Assay. The class given is biochemical. The note with it: for IC50: 36 μM ATP, poly-Glu-Tyr (4:1) substrate, ELISA read-out, read-out: PDGFRβ Enzyme Assay (IC50 nM). The method, then: Biochemical PDGFRβ kinase assays were performed in 96 well microtiter plates that were coated overnight with 75 μg of poly-Glu-Tyr (4:1) in 10 mM Phosphate Buffered Saline (PBS), pH 7.4. The coated plates were washed with 2 mls per well PBS+0.05% Tween-20 (PBS-T), blocked by incubation with PBS containing 1% BSA, then washed with 2 mls per well PBS-T prior to starting the reaction. Reactions were carried out in 100 μL reaction volumes containing 36 μM ATP in kinase buffer (50 mM Hepes buffer pH 7.4, 20 mM MgCl2, 0.1 mM MnCl2 and 0.2 mM Na3VO4). Test compounds were reconstituted in 100% DMSO and added to the reaction to give a final DMSO concentration of 5%. Reactions were initiated by the addition 20 ul per well of kinase buffer containing 200-300 ng purified cytoplasmic domain PDGFR-b protein (Millipore). Following a 60 minute incubation at 30° C., the reactions were washed 2 mls per well PBS-T. 100 μl of a monoclonal anti-phosphotyrosine antibody-peroxidase conjugate diluted 1:10,000 in PBS-T was added to the wells for 30 minutes. Following a 2 mls per well wash with PBS-Tween-20, 100 μl of O-Phenylenediamine Dihydrochloride in phosphate-citrate buffer, containing urea hydrogen peroxide, was added to the wells for 7-10 minutes as a colorimetric substrate for the peroxidase. The reaction was terminated by the addition of 100 μl of 2.5N H2SO4 to each well and read using a microplate ELISA reader set at 492 nm. IC50 values for compound inhibition were calculated directly from graphs of optical density (arbitrary units) versus compound concentration following subtraction of blank values.
Sequence of PDGFRβ (purified cytoplasmic domain PDGFR-b protein) (P09619 554-1106): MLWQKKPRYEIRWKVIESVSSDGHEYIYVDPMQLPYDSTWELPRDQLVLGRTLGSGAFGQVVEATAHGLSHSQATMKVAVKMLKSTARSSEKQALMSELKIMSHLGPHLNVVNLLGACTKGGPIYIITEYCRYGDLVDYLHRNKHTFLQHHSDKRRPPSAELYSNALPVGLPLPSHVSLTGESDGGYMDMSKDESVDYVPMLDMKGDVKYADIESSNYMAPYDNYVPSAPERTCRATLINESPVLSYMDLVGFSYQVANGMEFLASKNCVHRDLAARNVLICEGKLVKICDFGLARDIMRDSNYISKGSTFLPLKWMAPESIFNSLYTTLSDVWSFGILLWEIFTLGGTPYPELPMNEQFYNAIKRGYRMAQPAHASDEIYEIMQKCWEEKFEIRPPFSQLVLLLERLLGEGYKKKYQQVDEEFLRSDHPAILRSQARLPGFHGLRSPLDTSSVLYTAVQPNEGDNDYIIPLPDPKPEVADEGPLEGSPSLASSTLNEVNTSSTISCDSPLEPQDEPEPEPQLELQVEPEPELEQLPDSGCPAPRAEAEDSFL

Assay [2] concerns the target PDGFRβ (Homo sapiens (Human), UniProt P09619). The assay is described as follows: PDGFRβ Cellular Assay (FLIPR, PDGF-induced intracellular calcium in NHDF-Ad). The class given is cell-based. Particulars: PDGF-BB stimulation (30 ng/mL), Fluo-4 FLIPR. The method, then: Automated FLIPR (Fluorometric Imaging Plate Reader) technology was used to screen for inhibitors of PDGF-induced increases in intracellular calcium levels in fluorescent dye loaded […] cells. NHDF-Ad (Normal Human Dermal Fibroblasts, Adult; Lonza) were seeded in 384-well fibronectin coated black-walled plates overnight @ 37° C./5% CO2. Cells were loaded with calcium indicator Fluo-4 for 45 minutes at 37° C. Cells were washed 2 times (E1×405, Biotek Instruments) to remove extracellular dye. For screening, cells were pre-incubated with test agents for 30 minutes, at a single concentration (10 uM) or at concentrations ranging from 0.0001 to 10.0 uM followed by PDGF-BB stimulation (30 ng/mL). Changes in fluorescence at 516 nm were measured simultaneously in all 384 wells using a cooled CCD camera. Data were generated by determining max-min fluorescence levels for unstimulated, stimulated, and drug treated samples. IC50 values for test compounds were calculated from % inhibition of PDGF-BB stimulated responses in the absence of inhibitor.
(In general: Calcium flux is commonly read through the fluorescence of an indicator in the cells.)

The structures appear in SMILES notation.

Sequence of PDGFRβ (P09619 33-1106): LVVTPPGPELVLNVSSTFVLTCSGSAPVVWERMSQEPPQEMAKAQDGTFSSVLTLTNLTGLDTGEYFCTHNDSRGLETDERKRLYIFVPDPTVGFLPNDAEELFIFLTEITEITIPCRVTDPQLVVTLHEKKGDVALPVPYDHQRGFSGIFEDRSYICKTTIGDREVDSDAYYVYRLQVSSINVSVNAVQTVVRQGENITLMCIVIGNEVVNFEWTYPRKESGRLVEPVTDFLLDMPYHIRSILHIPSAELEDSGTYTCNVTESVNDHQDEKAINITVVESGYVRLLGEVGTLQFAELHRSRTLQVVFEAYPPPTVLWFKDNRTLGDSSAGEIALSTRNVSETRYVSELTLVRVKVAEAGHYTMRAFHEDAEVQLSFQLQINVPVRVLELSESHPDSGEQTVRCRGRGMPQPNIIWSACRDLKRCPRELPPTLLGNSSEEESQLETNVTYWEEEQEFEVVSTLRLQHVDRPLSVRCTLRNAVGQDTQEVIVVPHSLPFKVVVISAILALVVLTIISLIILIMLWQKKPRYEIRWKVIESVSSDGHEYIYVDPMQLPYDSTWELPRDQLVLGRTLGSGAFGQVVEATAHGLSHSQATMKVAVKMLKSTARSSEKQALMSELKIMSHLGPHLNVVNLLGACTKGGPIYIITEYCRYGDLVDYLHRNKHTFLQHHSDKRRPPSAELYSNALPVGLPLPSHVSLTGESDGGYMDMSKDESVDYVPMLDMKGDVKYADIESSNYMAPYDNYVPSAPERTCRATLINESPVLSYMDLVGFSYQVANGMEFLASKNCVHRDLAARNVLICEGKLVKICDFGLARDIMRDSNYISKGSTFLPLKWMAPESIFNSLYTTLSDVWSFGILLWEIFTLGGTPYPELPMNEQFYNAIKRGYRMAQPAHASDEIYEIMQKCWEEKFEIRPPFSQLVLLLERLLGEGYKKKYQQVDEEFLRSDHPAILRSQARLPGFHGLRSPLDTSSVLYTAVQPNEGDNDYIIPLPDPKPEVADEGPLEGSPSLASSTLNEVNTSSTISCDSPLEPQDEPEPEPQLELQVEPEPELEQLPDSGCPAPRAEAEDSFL

On to `Cc1ccoc1C(=O)Nc1cccc(C#Cc2cncc(C(=O)N=S3(=O)CCN(C(N)=O)CC3)c2)c1` [Example 3, 1-({[5-({3-[(3-Methyl-2-furoyl)amino]phenyl}ethynyl)pyridin-3-yl]carbonyl}imino)-1λ^4,4-thiazinane-4-carboxamide 1-oxide], for which the “activity/potency at the PDGFRβ receptor (in words)” value (“activity/potency” below) in assay [1] is “greatest potency”.

Consider `CCOC(=O)CNC(=O)N1CCS(=O)(=NC(=O)c2cncc(C#Cc3cccc(NC(=O)c4occc4C)c3)c2)CC1` [Example 11, Ethyl({[1-({[5-({3-[(3-methyl-2-furoyl)amino]phenyl}ethynyl)pyridin-3-yl]carbonyl}imino)-1-oxido-1λ^4,4-thiazinan-4-yl]carbonyl}amino)acetate], for which, in assay [1], the “activity/potency” value is given as “greatest potency”.

`Cc1ccoc1C(=O)Nc1cccc(C#Cc2cc(C(=O)N=S3(=O)CCN(C(=O)OC(C)(C)C)CC3)cnc2N)c1` [Example 13, tert-Butyl 1-({[6-amino-5-({3-[(3-methyl-2-furoyl)amino]phenyl}ethynyl)pyridin-3-yl]carbonyl}imino)-1λ^4,4-thiazinane-4-carboxylate 1-oxide]: in assay [1], the “activity/potency” value is “greatest potency”.

On to `Cc1ccc(F)c(C(=O)Nc2cccc(C#Cc3cc(C(=O)N=S4(=O)CCN(C(=O)OC(C)(C)C)CC4)cnc3N)c2)c1` [Example 16, tert-butyl 1-({[6-Amino-5-({3-[(2-fluoro-5-methylbenzoyl)amino]phenyl}ethynyl)pyridin-3-yl]carbonyl}imino)-1λ^4,4-thiazinane-4-carboxylate 1-oxide], for which the “activity/potency” value in assay [1] is given as “greatest potency”.

Consider `Cc1ccc(F)c(C(=O)Nc2cccc(C#Cc3cc(C(=O)N=S4(=O)CCNCC4)cnc3N)c2)c1` [Example 17, 6-Amino-5-({3-[(2-fluoro-5-methylbenzoyl)amino]phenyl}ethynyl)-N-(1-oxido-1λ^4,4-thiazinan-1-ylidene)nicotinamide], for which, in assay [1], the “activity/potency” value is reported as “greatest potency” and the IC50 was 7 nM.

Take `Cc1ccc(F)c(C(=O)Nc2cccc(C#Cc3cc(C(=O)N=S4(=O)CCN(C(N)=O)CC4)cnc3N)c2)c1` [Example 18, 1-({[6-Amino-5-({3-[(2-fluoro-5-methylbenzoyl)amino]phenyl}ethynyl)pyridin-3-yl]carbonyl}imino)-1λ^4,4-thiazinane-4-carboxamide 1-oxide]: the IC50 in assay [1] turned out to be 7 nM.

As to `Cc1ccoc1C(=O)Nc1cccc(C#Cc2cncc(C(=O)N=S3(=O)CCOCC3)c2)c1` [Example 19, 5-({3-[(3-methyl-2-furoyl)amino]phenyl}ethynyl)-N-(4-oxido-1,4λ^4-oxathian-4-ylidene)nicotinamide], the half-maximal inhibitory concentration (IC50) in assay [2] stood at 19 nM; in assay [1], 23 nM.

As to `Cc1ccoc1C(=O)Nc1cccc(C#Cc2cc(C(=O)N=S3(=O)CCOCC3)cnc2N)c1` [Example 20, 6-amino-5-({3-[(3-methyl-2-furoyl)amino]phenyl}ethynyl)-N-(4-oxido-1,4λ^4-oxathian-4-ylidene)nicotinamide], the IC50 in assay [2] worked out at 31 nM; in assay [1], 51 nM.

Take `Cc1ccc(F)c(C(=O)Nc2cccc(C#Cc3cc(C(=O)N=S4(=O)CCOCC4)cnc3N)c2)c1` [Example 21, 6-amino-5-({3-[(2-fluoro-5-methylbenzoyl)amino]phenyl}ethynyl)-N-(4-oxido-1,4λ^4-oxathian-4-ylidene)nicotinamide]: the 50% inhibitory concentration (IC50) in assay [1] worked out at 24 nM.

On to `Cc1ccc(F)c(NC(=O)c2cccc(C#Cc3cc(C(=O)N=S4(=O)CCOCC4)cnc3N)c2)c1` [Example 22, 6-amino-5-[(3-{[(2-fluoro-5-methylphenyl)amino]carbonyl}phenyl)ethynyl]-N-(4-oxido-1,4λ^4-oxathian-4-ylidene)nicotinamide], for which, in assay [2], the IC50 came out at 17 nM.

With `Nc1ncc(C(=O)N=S2(=O)CCOCC2)cc1C#Cc1cccc(C(=O)Nc2ccc(Cl)c(C(F)(F)F)c2)c1` [Example 23, 6-amino-5-{[3-({[4-chloro-3-(trifluoromethyl)phenyl]amino}carbonyl)phenyl]ethynyl}-N-(4-oxido-1,4λ^4-oxathian-4-ylidene)nicotinamide], the IC50 in assay [1] was determined as 13 nM.

With `CC(C)(C)c1cc(NC(=O)c2cccc(C#Cc3cc(C(=O)N=S4(=O)CCOCC4)cnc3N)c2)no1` [Example 24, 6-amino-5-[(3-{[(5-tert-butylisoxazol-3-yl)amino]carbonyl}phenyl)ethynyl]-N-(4-oxido-1,4λ^4-oxathian-4-ylidene)nicotinamide], in assay [1], the “activity/potency” value is listed as “best activity” and the IC50 amounted to 10 nM.

With `COc1cccc(NC(=O)c2cccc(C#Cc3cc(C(=O)N=S4(=O)CCOCC4)cnc3N)c2)c1` [Example 25, 6-amino-5-[(3-{[(3-methoxyphenyl)amino]carbonyl}phenyl)ethynyl]-N-(4-oxido-1,4λ^4-oxathian-4-ylidene)nicotinamide], in assay [1], the IC50 is 19 nM.

The IC50 is the midpoint of a concentration-inhibition curve.
